Data as given in patent US12171821B2, “Toxoplasma gondii vaccine” (priority 2018, dated 2024).
Values joined by “and” are separate entries in the source; they are usually repeats but may differ in a detail not shown here. Identical values can stand only once.

Experiments:
[1] = test system: T. gondii ME49 bradyzoites; assay: qPCR of SAG1, GRA11B, TUB1A on cDNA of infected cat intestinal monolayers; format: cell-based, Toxoplasma gondii
Method: (§1) FIGS. 6A-B. Quantification of merozoites in cat tissue culture. A) Cat intestinal organoids were disassociated by trypsin then grown as monolayers on glass slides. Slides were divided into three different groups: not supplemented with fatty acid, supplemented with 200 μM oleic acid or supplemented 200 μM linoleic acid. Monolayers were infected with T. gondii MEM bradyzoites purified from brains of chronic infected mice at a 1:10 MOI. Five days after infection, staining for GRA11B and BRP1 along with DAPI, allowed the percentage of vacuoles positive for GRA11B and BRP1out of the total vacuoles was determined. Total number of parasitophorous vacuoles were counted by positive DAPI staining and confirmed by morphology with DIC. At least 50 parasitophorous vacuoles were counted per replicate. Three biological replicates were counted and on average 35% of the total vacuoles were positive far both GRA11B and BRP1 in the linoleic acid supplemented monolayers. *p-value=0.0126 with N=3 by two-tailed unpaired t test. Straining for both BRP1 and GRA11B was used to ensure that merozoite stages were counted. […] BRP1 is a rhoptry protein that was initially found in bradyzoites; however, it is also expressed in merozoite. B) Cat intestinal monolayers were grown as described in panel A, except monolayers were quenched by TRIzol 5 days post-infection, RNA was extracted, and cDNA was synthesized using an oligo (dT) primer to amplify mRNA, Expression of SAG1 and GRA11B were quantified by qPCR and the fold change calculated in comparison with uninfected cells. TUB1A was used to normalize gene expression across samples.
Real-time PCR on ileum cDNA. Z-DNA binding protein deletion mice ice with and without delta-6-desaturase inhibitor treatment were euthanized 7 days post infection. The ileum of each mouse was removed and homogenized in 1 mL of TRIzol. Total RNA was isolated according to manufacturer's protocol (Invitrogen) and treated with amplification grade Dnase I. cDNA was generated using the Invitrogen SuperScript III First-Strand Synthesis kit with random hexamer primers. GRA11B and SAG1 were used as markers of sexual and asexual stages, respectively. The T. gondii housekeeping gene TUB1A was used to normalize target gene expression. Real-time quantitative PCR was performed using Bio-Rad iTaq Universal SYBR Green Supermix on 311 an Applied Biosystems StepOnePlus Real-Time PCR system. The efficiency of each primer set was calculated from the slope of a 1:10 dilution standard curve of tachyzoite gDNA, where E=10^(−1/slope). The Pfaffl method (Pfaffl, 2001), which accounts for differences in efficiencies, was then used to calculate the relative gene expression of GRA11B and SAG1 per sample, in triplicate. Only wells with one melt curve temperature were used, indicating a single product. Primer sequences were as follows: […]

[2] = test system: T. gondii ME49 bradyzoites; assay: Merozoite markers GRA11B/BRP1, immunofluorescence, infected cat intestinal monolayers; format: cell-based, Toxoplasma gondii; details: 200 μM fatty acid, 5 days of infection
Method: as §1, with “B) Cat intestinal monolayers were grown as described in panel A, except monolayers were quenched by TRIzol 5 days post-infection, RNA was extracted, and cDNA was synthesized using an oligo (dT) primer to amplify mRNA, Expression of SAG1 and GRA11B were quantified by qPCR and the fold change calculated in comparison with uninfected cells. TUB1A was used to normalize gene expression across samples.” left out

[3] = cat intestinal monolayers cDNA, biological replicates 1 and 2
[4] = cat intestinal monolayers cDNA, biological replicates 1 and 2, wells 1-3

CCCCC/C=C\C/C=C\CCCCCCCC(=O)O [linoleic acid]
GRA11B Ct mean [1, 3]: 26.44 and 27.75 | SAG1 Ct mean [1, 3]: 19.15 and 19.99 | GRA11B raw Ct values [1, 4]: 26.53 and 27.67 and 26.34 and 27.82 and 26.44 and 27.77 | SAG1 raw Ct values [1, 4]: 19.09 and 20.09 and 19.19 and 19.93 and 19.16 and 19.95 | GRA11B expression by qPCR (fold change versus uninfected cells, normalized to TUB1A) ([1]; cat intestinal monolayers, 200 μM, 5 days post-infection): significantly more abundant | parasites undergoing sexual development / merozoite stage markers GRA11B and BRP1 (staining) [2]: commonly seen only with linoleic acid supplementation
